Assay results reported in patent US7968508B2, “Benzophenone or benzoic acid anilide derivatives containing carboxyl groups as enzyme stabilizers” (priority 2007, dated 2011).

Target: Bacillus lentus alkaline protease F49 (Lederbergia lenta, UniProt P29599, A188P/L211D/S3T/V193M/V199I)
Test: Residual protease activity in the presence of an inhibitor
Assay type: biochemical
Details: compound 10 mM; substrate AAPFpNA; pH 8.6, 25° C.
Procedure: To verify that the compounds listed below have a protease activity-inhibiting effect, the residual proteolytic activity of the Bacillus lentus alkaline protease F49 (according to WO 95/23221 A1) was determined in the presence of these compounds.
The substrate succinyl-alanine-alanine-proline-phenylalanine-para-nitroanilide (AAPFpNA; Bachem L-1400) and 5×10^−9 and/or 1×10^−8 M of the protease were placed in 100 mM Tris buffer. The compounds to be tested as listed in Table 1 were then added in a final concentration of 10 mM. Each was dissolved in anhydrous DMSO, correcting for the effect of DMSO on the enzymatic activity by means of a corresponding reference with the same amount of DMSO but without the respective compound. The batches were incubated for 5 minutes at pH 8.6 and 25° C., where 1 U corresponds to 1 μmol substrate cleaved per minute.

Sequence of Bacillus lentus alkaline protease F49 (P29599 other isoform, or with tags, fused parts or gaps A188P/V193M/V199I/L211D): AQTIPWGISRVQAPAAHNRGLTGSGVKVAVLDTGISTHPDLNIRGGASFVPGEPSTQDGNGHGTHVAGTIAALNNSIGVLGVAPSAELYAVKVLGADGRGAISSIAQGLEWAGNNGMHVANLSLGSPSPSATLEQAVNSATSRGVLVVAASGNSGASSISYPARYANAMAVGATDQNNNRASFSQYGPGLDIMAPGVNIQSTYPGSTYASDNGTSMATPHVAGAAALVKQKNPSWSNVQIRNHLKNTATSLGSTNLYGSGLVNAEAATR

Structure (SMILES) | relative strength as protease inhibitor and/or stabilizer (rank order V1, V2, V3, V4, V5)
O=C(O)c1cccc(NC(=O)c2ccccc2C(=O)O)c1 [V1, 2-[[(3-carboxyphenyl)amino]carbonyl]benzoic acid] | the strongest
O=C(O)c1ccc(C(=O)c2ccccc2C(=O)O)cc1 [V4, 2-(4-carboxybenzoyl)benzoic acid] | practically just as good as V3
